Laboratory results reported in US6706663B2, “Herbicidal 3-heterocyclic substituted benzisothiazole and benzisoxazole compounds” (Wyeth, priority 2000, dated 2004).

Assays:
[1] = system: GLXMAW (Soybean, Williams); experiment: Postemergence herbicidal evaluation; format: in vivo, Glycine max, (L.) Merr. cv Williams; conditions: postemergence
In short: (§1)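 Visual 0–9 injury scores versus control plants, covering stand, vigour, malformation, size, chlorosis and general appearance, taken four to five weeks post-spray and averaged over replicate tests. Plants were sprayed at roughly two weeks old and held on greenhouse benches.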

[2] = system: ECHCG (Echinochloa crus-galli); experiment: Postemergence herbicidal evaluation; format: in vivo, (L.) Beau; conditions: postemergence
In short: as §1

ZEAMX (Corn, Field) = experiment: Postemergence herbicidal evaluation; format: in vivo, Zea mays, L.; conditions: postemergence
In short: as §1

[3] = system: IPOHE (Ipomoea hederacea); experiment: Postemergence herbicidal evaluation; format: in vivo, (L.) Jacq.; conditions: postemergence
In short: as §1

ORYSAT (Rice, Tebonnet) [4] = experiment: Preemergence herbicidal evaluation; format: in vivo, Oryza sativa, (L.) Tebonnet; conditions: rated 4-5 weeks after treatment
GALAP (Galium aparine) = experiment: Postemergence herbicidal evaluation; format: in vivo; conditions: postemergence
In short: as §1

CYPIR (Cyperus iria) = experiment: Flooded paddy, preemergence weed control; format: in vivo; conditions: rated 3-4 weeks after treatment, 0-9 rating scale
In short: (§2)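 Greenhouse paddy test, preemergence. Seeds planted in the top 0.5 cm of silt loam soil, which remained flooded at 1.5–3 cm depth. Scored 0-9 by visual comparison with control.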

[5] = system: ECHCG (Echinochloa crus-galli); experiment: Preemergence herbicidal evaluation; format: in vivo, (L.) Beau; conditions: rated 4-5 weeks after treatment
In short: (§3)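 Steps: mix seeds with potting soil; plant on ~1 inch soil per cup; spray compound in aqueous acetone; hold on greenhouse benches with routine watering; rate 0–9 visually against control at 4–5 weeks.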

SETVI (Setaria viridis) [6] = experiment: Preemergence herbicidal evaluation; format: in vivo, (L.) Beau; conditions: rated 4-5 weeks after treatment
In short: as §3

[7] = system: MOOVA (Monochoria vaginalis); experiment: Flooded paddy, preemergence weed control; format: in vivo, Presl.; conditions: rated 3-4 weeks after treatment, 0-9 rating scale
In short: as §2

[8] = system: ECHORC (Echinochloa oryzoides); experiment: Flooded paddy, preemergence weed control; format: in vivo, Echinochloa oryzoides (Ard.) Fritsch.; conditions: rated 3-4 weeks after treatment, 0-9 rating scale
In short: as §2

ORYSAT (Rice, Tebonnet) [9] = experiment: Flooded paddy, post-transplant rice tolerance; format: in vivo, Oryza sativa, (L.) Tebonnet; conditions: flooded paddy, post-transplant rice, rated 3-4 weeks after treatment, 0-9 rating scale
In short: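 Steps: transplant two ten-day-old seedlings into silt loam; flood to 1.5-3 cm above soil; apply herbicide post-transplant; maintain water on greenhouse benches; rate stand, vigor, malformation, size and chlorosis on a 0-9 visual scale versus control.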

[10] = system: ABUTH (Abutilon theophrasti); experiment: Postemergence herbicidal evaluation; format: in vivo, Medic.; conditions: postemergence
In short: as §1

[11] = system: SAGPY (Sagittaria pygmaea); experiment: Flooded paddy, preemergence weed control; format: in vivo, L.; conditions: rated 3-4 weeks after treatment, 0-9 rating scale
In short: as §2

[12] = system: AMBEL (Ambrosia artemisifolia); experiment: Preemergence herbicidal evaluation; format: in vivo, L.; conditions: rated 4-5 weeks after treatment
In short: as §3

[13] = system: CHEAL (Chenopodium album); experiment: Preemergence herbicidal evaluation; format: in vivo, L.; conditions: rated 4-5 weeks after treatment
In short: as §3

[14] = system: CASOB (Cassia obtusifolia); experiment: Preemergence herbicidal evaluation; format: in vivo, L.; conditions: rated 4-5 weeks after treatment
In short: as §3

[15] = system: IPOHE (Ipomoea hederacea); experiment: Preemergence herbicidal evaluation; format: in vivo, (L.) Jacq.; conditions: rated 4-5 weeks after treatment
SETVI (Setaria viridis) [16] = experiment: Postemergence herbicidal evaluation; format: in vivo, (L.) Beau; conditions: postemergence
In short: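 Ratings use a 0-9 visual scale covering stand, vigor, malformation, size, chlorosis and appearance versus a control, scored 4-5 weeks post-spray. Roughly two-week-old seedlings received about 0.0040-1.000 kg/ha active, applied in 50/50 acetone/water with 0.5% TWEEN 20. Multiple tests per compound were averaged.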

ORYSAT (Rice, Tebonnet) [17] = experiment: Postemergence herbicidal evaluation; format: in vivo, Oryza sativa, (L.) Tebonnet; conditions: postemergence
In short: as §1

C[C@@H]1C[C@H](C)OC(c2nsc3cc(F)c(-n4c(=O)cc(C(F)(F)F)n(C)c4=O)cc23)O1 (stereo partly drawn) [Compound 67, 3-[3-[(4R,6S)-4,6-dimethyl-m-dioxan-2-yl]-6-fluoro-1,2-benzisothiazol-5-yl]-1-methyl-6-(trifluoromethyl)uracil]
0.0: herbicidal rating, MOOVA ([7]; rate 0.0080 kg/ha)
6.0: ZEAMX herbicidal rating (ZEAMX (Corn, Field); rate 0.0620 kg/ha) | GALAP herbicidal rating (GALAP (Galium aparine); rate 0.0320 kg/ha)
5.0: GALAP herbicidal rating (GALAP (Galium aparine); rate 0.0620 kg/ha) | Preemergence herbicidal rating CASOB ([14]; Rate 0.1250 kg/ha)
7.0: herbicidal rating, CYPIR (CYPIR (Cyperus iria); rate 0.0320 kg/ha) | herbicidal rating, SAGPY ([11]; rate 0.0320 kg/ha) | herbicidal rating, SAGPY ([11]; rate 0.1250 kg/ha) | Preemergence herbicidal rating IPOHE ([15]; Rate 0.0620 kg/ha) | SETVI herbicidal rating (SETVI (Setaria viridis) [16]; rate 0.0620 kg/ha)
1.5: herbicidal rating, SAGPY ([11]; rate 0.0080 kg/ha)
4.5: herbicidal rating, CYPIR (CYPIR (Cyperus iria); rate 0.0080 kg/ha) | herbicidal rating, ECHORC ([8]; rate 0.0080 kg/ha) | ORYSAT herbicidal rating (ORYSAT (Rice, Tebonnet) [17]; rate 0.0320 kg/ha)
3.0: ECHCG herbicidal rating ([2]; rate 0.0320 kg/ha)
4.0: ECHCG herbicidal rating ([2]; rate 0.0620 kg/ha)
5.5: ZEAMX herbicidal rating (ZEAMX (Corn, Field); rate 0.0320 kg/ha) | herbicidal rating, ORYSAT (rice tolerance) (ORYSAT (Rice, Tebonnet) [9]; rate 0.0080 kg/ha) | Preemergence herbicidal rating CASOB ([14]; Rate 0.0620 kg/ha) | ORYSAT herbicidal rating (ORYSAT (Rice, Tebonnet) [17]; rate 0.0620 kg/ha)
9.0: GLXMAW herbicidal rating ([1]; rate 0.0320 kg/ha) | GLXMAW herbicidal rating ([1]; rate 0.0620 kg/ha) | IPOHE herbicidal rating ([3]; rate 0.0320 kg/ha) | IPOHE herbicidal rating ([3]; rate 0.0620 kg/ha) | Preemergence herbicidal rating ORYSAT (ORYSAT (Rice, Tebonnet) [4]; Rate 0.0620 kg/ha) | Preemergence herbicidal rating ORYSAT (ORYSAT (Rice, Tebonnet) [4]; Rate 0.1250 kg/ha) | herbicidal rating, CYPIR (CYPIR (Cyperus iria); rate 0.1250 kg/ha) | Preemergence herbicidal rating ECHCG ([5]; Rate 0.0620 kg/ha) | Preemergence herbicidal rating ECHCG ([5]; Rate 0.1250 kg/ha) | Preemergence herbicidal rating SETVI (SETVI (Setaria viridis) [6]; Rate 0.0620 kg/ha) | Preemergence herbicidal rating SETVI (SETVI (Setaria viridis) [6]; Rate 0.1250 kg/ha) | herbicidal rating, MOOVA ([7]; rate 0.0320 kg/ha) | herbicidal rating, MOOVA ([7]; rate 0.1250 kg/ha) | herbicidal rating, ECHORC ([8]; rate 0.0320 kg/ha) | herbicidal rating, ECHORC ([8]; rate 0.1250 kg/ha) | herbicidal rating, ORYSAT (rice tolerance) (ORYSAT (Rice, Tebonnet) [9]; rate 0.0320 kg/ha) | herbicidal rating, ORYSAT (rice tolerance) (ORYSAT (Rice, Tebonnet) [9]; rate 0.1250 kg/ha) | ABUTH herbicidal rating ([10]; rate 0.0320 kg/ha) | ABUTH herbicidal rating ([10]; rate 0.0620 kg/ha) | Preemergence herbicidal rating AMBEL ([12]; Rate 0.0620 kg/ha) | Preemergence herbicidal rating AMBEL ([12]; Rate 0.1250 kg/ha) | Preemergence herbicidal rating CHEAL ([13]; Rate 0.0620 kg/ha) | Preemergence herbicidal rating CHEAL ([13]; Rate 0.1250 kg/ha) | Preemergence herbicidal rating IPOHE ([15]; Rate 0.1250 kg/ha) | SETVI herbicidal rating (SETVI (Setaria viridis) [16]; rate 0.0320 kg/ha)
